Experimental data taken from patent US20220119772A1, “COMPOSITIONS AND METHODS FOR TREATMENT OF A MALABSORPTIVE DISORDER” (CHILDREN'S HOSPITAL MEDICAL CENTER, priority 2019, published 2022).
Ends that are not written are not given here.

How the values were obtained:
HIO-derived enteroids [1] = experiment: Intracellular pH assay (pHrodo, flow cytometry) in enteroids; assay type: cell-based, human
Method: (§1) Enteroids were differentiated for 5-7 days in the presence of vehicle (water), 10 nM VIP (Tocris) or 10 nM PYY (Phoenix Pharmaceuticals) and 10 nM VIP. On the final day, enteroids were removed from Matrigel and enzymatically dissociated into single-cell suspension using 0.25% Trypsin-EDTA. Cell suspensions were counted and equal cell numbers of dissociated HIOEs were incubated in pHrodo Green AM Intracellular pH indicator (ThermoFisher Scientific) according to manufacturer's directions for 30 minutes at 37 C., washed with 1X PBS, and analyzed by flow cytometry.
(§2) After mechanical and enzymatic dissociation, tissues were filtered through a 40 μm cell strainer to obtain a single-cell suspension. In all experiments, samples were labeled with either CDH1-mRuby2 or Anti-EpCam-APC (BD Biosciences) to distinguish epithelial cells and incubated with SYTOX Blue dead cell stain (Life Technologies) or 7-AAD (BD Pharmingen). Forward scatter and side scatter were used to discriminate doublets and cellular debris. A minimum of 50,000 events per sample was recorded using an LSR Fortessa flow cytometer (BD Biosciences) and data was analyzed using FACSDiva software (BD Biosciences).

SLC9A3 (NHE3) expression = experiment: qPCR of SLC9A3 (NHE3) expression in enteroids; assay type: cell-based, human
Method: RNA was extracted using Nucleospin RNA extraction kit (Macharey-Nagel) and reverse transcribed into cDNA using Superscript VILO (Invitrogen) according to manufacturer's instruction. qPCR primers were designed using NCBI PrimerBlast. Primer sequences are listed in the table below. qPCR was performed using Quantitect SYBR® Green PCR kit (QIAGEN) and a QuantStudio 3 Flex Real-Time PCR System (Applied Biosystems). Relative expression was determined using the […] method and normalizing to PPIA (cyclophilin A). Samples from at least three independent passages were used for quantification.
as §1

HIO-derived enteroids [2] = experiment: Enteroid swelling assay (VIP-induced, CFTR-mediated ion and water efflux); assay type: cell-based, human; conditions: for VIP-induced enteroid swelling: 10 nM VIP, 6 h, 10 nM PYY or 20 μM CFTR-172 added 24 h before imaging
Method: Enteroids were plated in 10 μL Matrigel on an 8-chamber glass bottom slide (Ibidi) and maintained as described above. 3-5 days post-plating, the slide was mounted on an inverted confocal microscope (Nikon) fitted with an incubation chamber set to 37° C. and 5% CO2. Media was changed to include 10 nM VIP (Tocris). In some experiments, the media was changed 24 hours prior to imaging to include 20 μM CFTR (inh)-172 (Millipore Sigma) or 10 nM PYY (Phoenix Pharmaceuticals). Images were acquired every 5 minutes at 4× magnification. After 6 hours, some HIOEs swelled to the point of bursting; therefore, Applicant used images acquired at time 0 and at 6 hours for quantification. The area of 10 representative enteroids per well was quantified using NIS Elements software at both time points. The outline of individual enteroids was traced manually and the area calculated by NIS Elements. Fold change at 6 hours over baseline was reported. Data include a minimum of three independent experiments per condition.

[3] = system: human small intestinal tissue (transplanted HIOs); experiment: Ussing chamber electrophysiology, peptides/chemicals added ex vivo, transplanted HIO tissue; assay type: cell-based; conditions: for initial Isc response to luminal glucose: then 25 mM D-glucose
Method: (§3) 28-35 days after spheroid generation, HIOs were removed from Matrigel and transplanted under the kidney capsule of immune deficient NOD.Cg-Prkdc^scidI12rg^tmIWjl/SzJ (NSG) mice as previously described^16. NSG mice were maintained on Bactrim chow for a minimum of 2 weeks prior to transplantation and thereafter for the duration of the experiment (8-14 weeks).
(§4) Electrophysiological experiments were conducted as described^28 with minor modifications. Mouse jejunum and transplanted HIOs were dissected and immediately placed in ice-cold Krebs-Ringer solution. Tissues were opened to create a flat epithelial surface. Because seromuscular stripping is associated with release of cyclooxygenases and prostaglandins^28, and prostaglandins can stimulate L-cells to release GLP1, GLP2 and PYY^36, Applicant performed the Ussing chamber experiments in intestinal tissue with an intact muscular layer. Tissues were mounted into sliders (0.031 cm^2 area slider, P2307, Physiological Instruments) and placed in an Ussing chamber with reservoirs containing 5 mL buffer (115 mM NaCl, 1.2 mM CaCl2, 1.2 mM MgCl2, 25 mM NaHCO3, 2.4 mM K2HPO4 and 0.4 mM KH2PO4). The mucosal and serosal tissue surfaces were bathed in the same solution, with the exception of 10 mM glucose in the serosal buffer and 10 mM mannitol in the luminal buffer. Mucosal and serosal reservoir solutions were gassed with 95% O2 and 5% CO2 to pH 7.4 and maintained at 37° C. by a circulating water bath behind the reservoir chambers. Electrophysiology parameters were recorded as previously described^37. Tissue was allowed to equilibrate to a basal steady-state for a minimum of 30 minutes before the addition of chemicals or peptides. 10 nM tetrodotoxin (Tocris) was added to the serosal buffer bathing mouse intestine to inhibit voltage-gated neuronal firing and allowed to incubate for a minimum of 10 minutes before basal Isc recording. D-glucose and Gly-Sar were added to the luminal side of the chamber once the VIP-induced Isc had stabilized at a maximum value.

mouse jejunum = experiment: Ussing chamber electrophysiology, peptides/chemicals added ex vivo, mouse jejunum; assay type: cell-based; conditions: for initial Isc response to luminal glucose: then 25 mM D-glucose
Method: as §4

[4] = system: VillinCre;Neurog3flox/flox (EEC-deficient) mice; experiment: PYY rescue of EEC-deficient mice (daily i.p. injection), with ex vivo analysis of jejunum; assay type: in vivo, mouse
Method: as §4, §2
VillinCre;Neurog3^flox/flox mice^4 and their littermates were weighed, genotyped and visually examined for liquid feces daily beginning at postnatal day 10. Applicant established a diarrhea score, with 3 representing wet, yellow feces that smeared the perianal fur, and 0 representing normal, dry, brown, well-defined pellets. Mutant mice which suffered from diarrhea score 3 were included in the rescue experiment. 10 μg PYY (Phoenix Pharmaceuticals) was diluted in water and added to 20 μl DPP4 inhibitor (Millipore) to a final volume of 100 μl per mouse. Mice were injected intraperitoneally with this cocktail within 2 hours of the onset of the dark cycle (7 pm) daily until analysis at postnatal day 28-35. Mice were given access to solid chow on the floor of the cage beginning at postnatal day 10 and weaned at postnatal day 21.

[5] = system: EEC-deficient HIOs transplanted in NSG mice; experiment: PYY treatment of NSG mice hosting EEC-deficient HIOs, Ussing chamber analysis of HIO tissue; assay type: in vivo, human
Method: as §3
Electrophysiological experiments were conducted as described^28 with minor modifications. Mouse jejunum and transplanted HIOs were dissected and immediately placed in ice-cold Krebs-Ringer solution. Tissues were opened to create a flat epithelial surface. Because seromuscular stripping is associated with release of cyclooxygenases and prostaglandins^28, and prostaglandins can stimulate L-cells to release GLP1, GLP2 and PYY^36, Applicant performed the Ussing chamber experiments in intestinal tissue with an intact muscular layer. […] Electrophysiology parameters were recorded as previously described^37. […]
NSG mice hosting HIOs were treated with 25 μg PYY (Phoenix Pharmaceuticals) diluted in water to 100 μL by intraperitoneal injection. Mice were treated daily for a minimum of 10 days after HIOs had been maturing for 8 weeks, then dissected and analyzed.

## VIP: vasoactive intestinal peptide (Tocris), ENS-derived peptide signalling via VIPR1 to raise cAMP (HSDAVFTDNYTRLRKQMAVKKYLNSILN-NH2; ends and bridges not checked; UniProt P01282 125-152, looked up)
HIO-derived enteroids [1]; EEC-deficient enteroids differentiated with 10 nM VIP for 5-7 days
  intracellular pH: developed an H^+ imbalance with an acidic cytoplasm
SLC9A3 (NHE3) expression; EEC-deficient enteroids, 5-7 days of exposure to VIP
  SLC9A3 expression: reduced
SLC9A3 (NHE3) expression; wild type enteroids, 5-7 days of exposure to VIP
  SLC9A3 expression: reduced
HIO-derived enteroids [2]; 10 nM VIP added to enteroids
  ion and water transport as measured by organoid swelling: induced ion and water transport

## PYY: Peptide YY, PYY(1-36) from Phoenix Pharmaceuticals; EEC-derived gut peptide acting on NPY1R; co-injected with DPP4 inhibitor in mice
[3]; EEC-deficient (mutant) human tissue, 10 nM PYY added
  basal Isc: lowered the basal Isc
[3]; EEC-deficient HIO tissue treated with VIP, pre-treatment with 10 nM PYY
  initial Isc response to luminal glucose: returned to wild type levels
[3]; EEC-deficient mutant HIOs, 10 nM VIP, exogenous PYY added
  magnitude of response (ΔIsc) to VIP: reduced the magnitude of response (ΔIsc) to VIP
HIO-derived enteroids [1]; EEC-deficient enteroids, 10 nM VIP with concurrent 10 nM PYY for 5-7 days
  intracellular pH: normalized the pH in EEC-deficient enteroids
Mouse jejunum; EEC-deficient (mutant) mouse tissue, 10 nM PYY added
  basal Isc: lowered the basal Isc
Mouse jejunum; EEC-deficient mouse tissue treated with VIP, pre-treatment with 10 nM PYY
  initial Isc response to luminal glucose: returned to wild type levels
Mouse jejunum; EEC-deficient mouse tissue, 10 minutes pre-treatment with 10 nM PYY, VIP present
  Isc response to luminal dipeptide Gly-Sar: did not alter the Isc response to Gly-Sar
Mouse jejunum; EEC-deficient mutant mice, 10 nM VIP, exogenous PYY added
  magnitude of response (ΔIsc) to VIP: reduced the magnitude of response (ΔIsc) to VIP
SLC9A3 (NHE3) expression; EEC-deficient enteroids, PYY concurrently with VIP, 5-7 days
  SLC9A3 expression: restored SLC9A3 expression to not significantly different from untreated
HIO-derived enteroids [2]; EEC-deficient enteroids
  VIP-induced enteroid swelling: significant inhibition of VIP-induced swelling
HIO-derived enteroids [2]; wild type enteroids
  VIP-induced enteroid swelling: significant inhibition of VIP-induced swelling
[4]; 10 μg PYY(1-36) i.p. once daily from P10, co-injected with DPP4 inhibitor
  survival of EEC-deficient (mutant) mice: up to 88%
[4]; EEC-deficient mice, long-term PYY treatment, compared to untreated mutant
  Isc response to luminal Gly-Sar: improved Isc response to luminal Gly-Sar
[4]; EEC-deficient mouse intestine after in vivo PYY treatment
  response to luminal glucose: restores a normal glucose response
[4]; EEC-deficient vs EEC-rich regions of mosaic jejunum after PYY treatment
  MFI of pHrodo intensity (intracellular pH, proton transport): normalized
[4]; jejunum of mutant mice treated with PYY in vivo
  electrogenic response to VIP: restored to wild type levels
[4]; mutant jejunum in Ussing chamber after in vivo injections of PYY
  basal (resting) Isc of jejunum: significantly decreased
[4]; within 48 hours of PYY treatment, score 3 = watery diarrhea, 0 = well-defined pellets, 10 μg PYY i.p. daily with DPP4 inhibitor
  diarrhea score (average): 1
[5]; EEC-deficient HIOs, host animals injected with 25 μg PYY i.p. daily for 10 days
  response to luminal glucose: restores a normal glucose response
[5]; EEC-deficient transplanted HIOs, host animals treated long-term with PYY, compared to untreated mutant
  Isc response to luminal Gly-Sar: improved Isc response to luminal Gly-Sar

## O=C(O)c1ccc(/C=C2\SC(=S)N(c3cccc(C(F)(F)F)c3)C2=O)cc1 [CFTR-172]
[3]; wild-type and EEC-deficient human tissue, 20 μM CFTR-172
  electrogenic response to VIP: blocked
Mouse jejunum; wild type and mutant jejunum pre-treated with 20 μM CFTR-172
  electrogenic response to VIP: blocked
HIO-derived enteroids [2]; EEC-deficient enteroids
  VIP-induced enteroid swelling: blocked
HIO-derived enteroids [2]; wild type enteroids
  VIP-induced enteroid swelling: blocked

## NC(=O)NCc1ccc(CNC(=O)[C@@H](CCCN=C(N)N)NC(=O)C(c2ccccc2)c2ccccc2)cc1 [BIB03304, N-[(1R)-1-[[[[4-[[(Amirtocarbortyl)amino]methyl]phenyl]methyl]amino]carbonyl]-4-[(aminoiminomethyl)amino]butyl]-α-phenyl-benzeneacetamide ditrifluoroacetate]
[3]; wild-type HIO tissue treated with VIP, NPY1R antagonist BIB03304
  initial Isc response to luminal glucose: caused an abnormal initial response to glucose that mimicked EEC-deficient tissues
[3]; wild-type human tissue, 10 nM VIP, PYY receptor inhibited with BIB03304
  response (ΔIsc) to VIP: elevated response to VIP compared to untreated wild-type
[3]; wild-type human tissue, 300 nM BIB03304 added
  basal Isc: reproducibly increased the basal Isc
[3]; wild-type human tissue, 10 minutes pre-treatment with 300 nM BIB03304
  Isc response to luminal dipeptide Gly-Sar: did not alter the Isc response to Gly-Sar
Mouse jejunum; wild-type mouse tissue treated with VIP, NPY1R antagonist BIB03304
  initial Isc response to luminal glucose: caused an abnormal initial response to glucose that mimicked EEC-deficient tissues
Mouse jejunum; wild-type mouse tissue, 10 nM VIP, PYY receptor inhibited with BIB03304
  response (ΔIsc) to VIP: elevated response to VIP compared to untreated wild-type
Mouse jejunum; wild-type mouse tissue, 300 nM BIB03304 added
  basal Isc: reproducibly increased the basal Isc
Mouse jejunum; wild-type mouse tissue, 10 minutes pre-treatment with 300 nM BIB03304
  Isc response to luminal dipeptide Gly-Sar: did not alter the Isc response to Gly-Sar
